As usually defined, the ED50 is the dose at which the effect has come halfway, by size or by number of responders. What is called half-life is the time needed for the level to fall by half in the phase considered.

Consider 5 compounds from patent US5288709A, “Erythromycin derivatives” (priority 1991, dated 1994).

Values after ≈ are worked out from the molar mass of the structure shown. Values joined by “and” are separate entries in the source; they are usually repeats but may differ in a detail not shown here. Identical values can stand only once. Like-named read-outs stand apart in the source and are kept apart here.

Data set [1] has as its system Staphylococcus aureus CMX 686B. In words: In-vitro antimicrobial activity primary screen (agar dilution MIC). Type of data set: cell-based. As to conditions: CMX686B, BHI agar, 20-24 h, read-out: MIC. In short, it runs like this: (§1)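 MIC is read as the lowest compound level yielding no growth, slight haze or sparse colonies on the inoculum spot, relative to a drug-free plate. Strains were replicator-inoculated (1:100 dilution) onto BHI agar plates holding twelve dilutions and held at 35-37 °C for 20-24 h, with erythromycin A as comparator.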
In general terms: In agar dilution, organisms are placed on agar that contains the substance at set levels.

For data set [2], the system named is Staphylococcus aureus CMX 503A. Described as above. In kind it is cell-based. The settings on record: BHI agar, 20-24 h. The method, boiled down:
as §1

Data set [3] relates to Staphylococcus aureus CMX 553. The data set is described as above. Type of data set: cell-based. As to conditions: BHI agar, 20-24 h. The method, boiled down:
as §1

Data set [4] has as its system Staphylococcus aureus (NCTC 10649). The data set is described as follows: In-vivo acute mouse protection assay. Also noted: species or system Staphylococcus aureus; female Swiss albino mice. As to conditions: dosed 1 and 5 h post-infection, observed 7 days. The protocol: (§2) An acute mouse protection test was conducted on ten mice with each of three concentrations of selected compounds of the invention. Each concentration was a four-fold dilution of the previous concentration. The initial concentration will vary with the microorganism with which the mouse is challenged.
(§3) The acute mouse protection test was conducted on female, Swiss albino mice, 18-20 grams in weight. […] To check the potency of the inoculum, a titration of the indicated test organism was carried out in control animals. The titration determines the LD50 for a particular microorganism. The treatment groups of animals were dosed orally, by gavage, or subcutaneously with the test compounds at 1 and 5 hours post-infection and observed for 7 days. The ED50 were calculated using the mortality data collected.

The test system of data set [5] is Streptococcus pneumoniae (ATCC 6303). The data set is described as follows: In-vivo acute mouse protection assay. More on the design: species or system Streptococcus pneumoniae; female Swiss albino mice. As to conditions: dosed 1 and 5 h post-infection, observed 7 days. The method, then: as §2, §3
For data set [6], the system named is Staphylococcus aureus NCTC 10649. The data set is described as follows: In-vitro antimicrobial activity primary screen (agar dilution MIC). Type of data set: cell-based. The settings on record: BHI agar, 20-24 h. In short, it runs like this:
(§4)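 Agar dilution in BHI agar, 12 successive aqueous dilutions; Steers replicator inoculum 1:100, 1:10 for slow-growing Streptococcus; 35-37° C, 20-24 h. Drug-free plates at start and end; same-class reference drug plate. MIC = lowest conc with no growth/slight haze/sparse colonies.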

For data set [7], the system named is Staphylococcus aureus 642A. Described as above. Type of data set: cell-based. As to conditions: BHI agar, 20-24 h. In short, it runs like this:
as §4

Data set [8] has as its system Haemophilus influenzae (ATCC 43095). In words: In-vivo acute mouse protection assay. The settings on record: dosed 1 and 5 h post-infection, observed 7 days. Also noted: species or system Haemophilus influenzae; female Swiss albino mice. The protocol:
as §2, §3

Data set [9] can be described thus: in vivo. As to conditions: dog, iv, 10 mg/kg, t1/2 (biological half life), microbiological assay.
Description: Selected compounds of the present invention were formulated as solutions in dilute lactobionic acid at a concentration of 10 or 20 mg/ml. Groups of two or three dogs were given a 10 mg macrolide/kg intravenous bolus or oral dose (by gavage). Plasma samples, obtained at selected time points from 15 minutes to 32 hours after dosing, were assayed using reverse phase HPLC with electrochemical detection (parent drug) and microbiological assay (total microbiological activity). Plasma concentration time curves were subjected to multi exponential curve fitting to determine terminal elimination half life values. Area under the curve (AUC) values, calculated by the trapezoidal method, were used to calculate absolute bioavailability.
Data set [10] relates to Haemophilus influenzae ATCC 43095. In words: Treatment of induced otitis media in gerbils. Type of data set: in vivo, Haemophilus influenzae; female mongolian gerbils. As to conditions: read-out: ED50 (dose required to reduce CFUs by 90%). The method, then: The effectiveness of one of the compounds of the present invention in treating otitis media was examined as desribed below. A five hour log phase culture of Haemophilus influenzae ATCC 43095 was prepared in brain heart infusion broth (BHIB) supplemented with 4% Fildes enrichment and 0.001% nicotinamide adenine dinucleotide (NAD; commerically available from Sigma Chemical Co., St. Louis, Missouri).
Immediately prior to treatment with the test compounds, middle ear aspirates from five gerbils were obtained as described below and cultured to determine the level of infection at the onset of therapy. The test compounds produced by Example 19, (9S,11S)-11-Amino-9-deoxo-11,12-deoxy-9,12-epoxyerythromycin A, was administered orally by gavage in a 0.5 mL volume beginning 17 hours post infection and continuing three times daily for two days to groups of five gerbils. As a standard, a second group of gerbils was similarly treated using erythromycin. Eighteen hours after the final treatment, the gerbils were euthanized, 0.02 mL of BHIB injected into the middle ear bulla through the tympanic membrane, and middle ear aspirates collected and cultured.
The aspirates were diluted in BHIB and plated in duplicate onto chocolate agar. Colonies were counted after overnight incubation, and bacterial counts were expressed as colony forming units (CFUs) per middle ear. […]

The mark [11] stands for this setting: Staphylococcus aureus, CMX503A, 24 h, read-out: MIC.
Setting [12] is: Staphylococcus aureus, CMX553, 24 h, read-out: MIC.
[13] abbreviates: Staphylococcus aureus, NCTC10649, 168 h, oral, read-out: ED50.
The mark [14] stands for this setting: Staphylococcus aureus, NCTC10649, sc, 168 h, subcutaneous, read-out: ED50.
Setting [15] is: ATCC6303, 168 h, oral, read-out: ED50.
[16] abbreviates: ATCC6303, sc, 168 h, subcutaneous, read-out: ED50.
The mark [17] stands for this setting: ATCC43095, 168 h, oral, read-out: ED50.

For the compound `CC[C@H]1OC(=O)[C@H](C)[C@@H](O[C@H]2C[C@@](C)(OC)[C@@H](O)[C@H](C)O2)[C@H](C)[C@@H](O[C@@H]2O[C@H](C)C[C@H](N(C)C)[C@H]2O)[C@](C)(O)C[C@@H](C)[C@@H]2O[C@@]1(C)C(=O)[C@H]2C` [Example 5, (9S)-9-Deoxo-11,12-dideoxy-9,12-epoxy-11-oxoerythromycin A], the figures for the MIC in [1], in [2] (setting [11]) and in data set [3] (setting [12]) were 0.39 µg/mL (≈ 0.545 µM), 0.2 µg/mL (≈ 0.279 µM) and 0.1 µg/mL (≈ 0.14 µM), respectively. Further, the ED50 in data set [4] (setting [13]) was 25.2 mg/kg; in data set [4] (setting [14]), 22.6 mg/kg; in [5] (setting [15]), 23.7 mg/kg; in [5] (setting [16]), under 0.4 mg/kg.

For the compound `CC[C@H]1OC(=O)[C@H](C)[C@@H](O[C@H]2C[C@@](C)(OC)[C@@H](O)[C@H](C)O2)[C@H](C)[C@@H](O[C@@H]2O[C@H](C)C[C@H](N(C)C)[C@H]2O)[C@](C)(O)C[C@@H](C)C(=O)[C@H](C)[C@@H](O)[C@]1(C)O` [Std, Erythromycin A, reference compound], the MIC was 0.1 microgram/mL in [6]; 0.2 µg/mL (≈ 0.273 µM) in [6] (Staphylococcus aureus, NCTC10649, 24 h); 0.1 microgram/mL in data set [7]; 0.2 µg/mL (≈ 0.273 µM) in [7] (Staphylococcus aureus, 642A, 24 h); 0.2 µg/mL (≈ 0.273 µM) in [1]; 0.1 microgram/mL in [2]. For the same compound, the figures for the MIC in [2] (setting [11]), in data set [3] and in data set [3] (setting [12]) were 0.2 µg/mL (≈ 0.273 µM), 0.1 microgram/mL and 0.2 µg/mL (≈ 0.273 µM), respectively. For the same compound, the ED50 was 29.7 mg/kg in data set [8] (ATCC43095, sc, 168 h, subcutaneous); over 300 mg/kg in data set [10] (ATCC43095, po); 12.9 mg/kg in [4] (Staphylococcus aureus, NCTC10649, sc, 168 h, subcutaneous); 8.3 mg/kg and 11.6 mg/kg in data set [4] (subcutaneous, 10080 min). This compound gave a half-life in data set [9] of 1.4 h.

For the compound `CC[C@H]1OC(=O)[C@H](C)[C@@H](O[C@H]2C[C@@](C)(OC)[C@H](N)[C@H](C)O2)[C@H](C)[C@@H](O[C@@H]2O[C@H](C)C[C@H](N(C)C)[C@H]2O)[C@](C)(O)C[C@@H](C)[C@@H]2O[C@@]1(C)[C@@H](O)[C@H]2C` [Example 13, (4"R,9S,11S) 4"-Amino-9-deoxo-4",12-dideoxy-9,12-epoxyerythromycin A], the MIC in [1], in data set [2] (setting [11]) and in [3] (setting [12]) was 0.2 µg/mL (≈ 0.279 µM) throughout. The ED50 in data set [4] (setting [13]) worked out at 126 mg/kg; in data set [4] (setting [14]) it was 39.6 mg/kg; in [5] (setting [15]) it was 84.8 mg/kg; in data set [5] (ATCC6303, sc, 168 h, subcutaneous), 4 mg/kg.

Regarding `CC[C@H]1OC(=O)[C@H](C)[C@@H](O[C@H]2C[C@@](C)(OC)[C@@H](O)[C@H](C)O2)[C@H](C)[C@@H](O[C@@H]2O[C@H](C)C[C@H](N(C)C)[C@H]2O)[C@](C)(O)C[C@@H](C)[C@@H]2O[C@@]1(C)[C@@H](N)[C@H]2C` [Example 19, (9S,11S)-11-Amino-9-deoxo-11,12-deoxy-9,12-epoxyerythromycin A], the ED50 was 101 mg/kg in data set [8] (setting [17]); 46.5 mg/kg in data set [10] (ATCC43095, gerbil, oral gavage three times daily for two days from 17 h post infection); 75.4 mg/kg in [4] (setting [13]); 20.7 mg/kg in data set [4] (setting [14]); under 9.4 mg/kg in data set [5] (setting [15]); 1.1 mg/kg in [5] (setting [16]). The MIC in data set [1], in data set [2] (setting [11]) and in [3] (setting [12]) was 0.2 µg/mL (≈ 0.279 µM) each time.

For the compound `CC[C@H]1OC(=O)[C@H](C)[C@@H](O[C@H]2C[C@@](C)(OC)[C@@H](O)[C@H](C)O2)[C@H](C)[C@@H](O[C@@H]2O[C@H](C)C[C@H](N(C)C)[C@H]2O)[C@](C)(O)C[C@@H](C)[C@@H]2O[C@@]1(C)[C@@H](O)[C@H]2C` [Example 4, (9S,11S)-9-Deoxo-12-deoxy-9,12-epoxyerythromycin A], the median effective dose (ED50) in data set [8] (setting [17]) is 238 mg/kg; in data set [8] (ATCC43095, sc, 168 h, subcutaneous, read-out: ED50), 11.3 mg/kg; in data set [4] (setting [13]) it was 55 mg/kg; in data set [4] (setting [14]), 22.6 mg/kg; in data set [5] (setting [15]) it was 20.4 mg/kg; in data set [5] (setting [16]), 1.3 mg/kg. Also, the MIC in [1], in data set [2] (setting [11]) and in [3] (setting [12]) was 0.2 µg/mL (≈ 0.279 µM) each time.
